# Reference: patent US7595401B2, “Therapeutic compounds and their use in cancer” (Myriad Pharmaceuticals, Inc., priority 2006, dated 2009)
# System: purified human Hsp90
# Test: Binding Assay: fluorescence polarization with BODIPY-labeled geldanamycin
# Details: BODIPY-GM 10 nM, Hsp90 30 nM
# Method in brief: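 Compounds in 2% DMSO final compete with 10 nM BODIPY-GM for 30 nM purified human Hsp90, incubated overnight at room temperature in pH 7.3 HEPES buffer containing Na2MoO4 and DTT. Polarization (mP, ex/em 485/530) normalized to DMSO gives percent inhibition; autofluorescence-confounded data excluded.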
Compound,% Inhibition at 5 μM Compound Concentration [%],IC50 [nM]
"Nc1ncn(CCc2ccc(-c3ccccc3)cc2)c2nc(Sc3cc4c(cc3Br)OCO4)nc1-2 [Example 172, 3-(2-biphenyl-4-yl-ethyl)-8-(6-bromo-benzo[1,3]dioxol-5-ylsulfanyl)-3H-purin-6-ylamine]",>10,–
"Nc1ncnc2c1nc(Sc1cc3c(cc1Br)OCO3)n2CCN1CCOC1=O [Example 586, 3-(2-{6-Amino-8-[(6-bromo-1,3-benzodioxol-5-yl)thio]-9 H-purin-9-yl}ethyl)-1,3-oxazolidin-2-one]",–,450
"Nc1ncnc2c1nc(Sc1cc3c(cc1Br)OCO3)n2CC[C@@H]1CCNC1 [Example 484, 8-[(6-Bromo-1,3-benzodioxol-5-yl)thio]-9-{2-[(3S)-pyrrolidin-3-yl]ethyl}-9 H-purin-6-amine]",–,600
"CO[C@H](C)C(=O)N1CCC(CCn2c(Sc3cc4c(cc3Br)OCO4)nc3c(N)ncnc32)CC1 [Example 725, 8-[(6-Bromo-1,3-benzodioxol-5-yl)thio]-9-(2-{1-[(2R)-2-methoxypropanoyl]piperidin-4-yl}ethyl)-9H-purin-6-amine]",–,100
"COc1ccc(CN2CCC(CCn3cnc(N)c4nc(Sc5cc6c(cc5Br)OCO6)nc3-4)CC2)cc1 [Example 595, 8-[(6-Bromo-1,3-benzodioxol-5-yl)thio]-3-{2-[1-(4-methoxybenzyl)piperidin-4-yl]ethyl}-3 H-purin-6-amine]",43.00,–
"Nc1ncnc2c1nc(Sc1cc3c(cc1Br)OCO3)n2CCC1CCN(C(=O)NCCCC(=O)O)CC1 [Example 502, 4-({[4-(2-{6-Amino-8-[(6-bromo-1,3-benzodioxol-5-yl)thio]-9 H-purin-9-yl}ethyl)piperidin-1-yl]carbonyl}amino)butanoic acid]",–,140
"Nc1ncn(CCc2cccnc2)c2nc(Sc3cc4c(cc3Br)OCO4)nc1-2 [Example 152, 8-(6-bromo-benzo[1,3]dioxol-5-ylsulfanyl)-3-(2-pyridin-3-yl-ethyl)-3H-purin-6-ylamine]",20,–
"CC(C)(C)OC(=O)N1CC[C@H](CCn2c(Sc3cc4c(cc3Br)OCO4)nc3c(N)ncnc32)C1 [Example 418, tert-Butyl (3R)-3-(2-{6-amino-8-[(6-bromo-1,3-benzodioxol-5-yl)thio]-9H-purin-9-yl}ethyl)pyrrolidine-1-carboxylate]",–,300
"Cc1cc(=O)n(CCn2c(Sc3cc4c(cc3Br)OCO4)nc3c(N)ncnc32)c(=O)[nH]1 [Example 578, 3-(2-{6-amino-8-[(6-bromo-1,3-benzodioxol-5-yl)thio]-9 H-purin-9-yl}ethyl)-6-methylpyrimidine-2,4 (1 H,3 H)-dione]",–,550
"CC1(C)COC(CCn2c(Sc3cc4c(cc3Br)OCO4)nc3c(N)ncnc32)CN1 (centres unmarked) [Example 601, 8-[(6-Bromo-1,3-benzodioxol-5-yl)thio]-9-[2-(5,5-dimethylmorpholin-2-yl)ethyl]-9 H-purin-6-amine]",–,> 8000
"Nc1ncnc2c1nc(Sc1cc3c(cc1Br)OCO3)n2CCC1CCN(Cc2ccccc2)CC1 [Example 599, 9-[2-(1-Benzylpiperidin-4-yl)ethyl]-8-[(6-bromo-1,3-benzodioxol-5-yl)thio]-9 H-purin-6-amine]",–,260
"CC(=O)N1CCC(CCn2c(Sc3nc4c(Cl)cccc4s3)nc3c(N)ncnc32)CC1 [Example 653, 9-[2-(1-Acetylpiperidin-4-yl)ethyl]-8-[(4-chloro-1,3-benzothiazol-2-yl)thio]-9H-purin-6-amine]",–,> 2000
"C[C@H](NC(=O)OC(C)(C)C)C(=O)N1CCCC(Cn2c(Sc3cc4c(cc3Br)OCO4)nc3c(N)ncnc32)C1 (stereo partly drawn) [Example 778, tert-Butyl {(1S)-2-[3-({6-amino-8-[(6-bromo-1,3-benzodioxol-5-yl)thio]-9H-purin-9-yl}methyl)piperidin-1-yl]-1-methyl-2-oxoethyl}carbamate]",–,2000
"Nc1ncn(CCc2ccc(Cl)cc2F)c2nc(Sc3cc4c(cc3Br)OCO4)nc1-2 [Example 40, 8-(6-bromo-benzo[1,3]dioxol-5-ylsulfanyl)-3-[2-(4-chloro-2-fluoro-phenyl)-ethyl]-3H-purin-6-ylamine]",–,> 10000
"COc1cc(CCn2c(Sc3cc4c(cc3Br)OCO4)nc3c(N)ncnc32)cc(OC)c1OC [Example 91, 8-(6-Bromo-benzo[1,3]dioxol-5-ylsulfanyl)-9-[2-(3,4,5-trimethoxy-phenyl)-ethyl]-9H-purin-6-ylamine]",–,200
"COc1ccc(OC)c(Sc2nc3c(N)ncnc3n2CCc2ccc(N)cc2)c1 [Example 216, 9-[2-(4-Amino-phenyl)-ethyl]-8-(2,5-dimethoxy-phenylsulfanyl)-9H-purin-6-ylamine]",78,> 8000
"CO[C@@H](C)C(=O)N1CCC(CCn2c(Sc3cc4c(cc3Br)OCO4)nc3c(N)ncnc32)CC1 [Example 724, 8-[(6-Bromo-1,3-benzodioxol-5-yl)thio]-9-(2-{1-[(2S)-2-methoxypropanoyl]piperidin-4-yl}ethyl)-9H-purin-6-amine]",–,105

Compound,% Inhibition at 5 μM Compound Concentration [%],IC50 [nM]
"COc1ccc(OC)c(Sc2nc3c(N)ncnc3n2CCC2CCOCC2)c1 [Example 348, 8-[(2,5-Dimethoxyphenyl)thio]-9-[2-(tetrahydro-2H-pyran-4-yl)ethyl]-9H-purin-6-amine]",–,800
"COc1ccc(OC)c(Sc2nc3c(N)ncnc3n2CCC2CCN(C(C)=O)CC2)c1 [Example 557, 9-[2-(1-Acetylpiperidin-4-yl)ethyl]-8-[(2,5-dimethoxyphenyl)thio]-9 H-purin-6-amine]",–,1500
"COc1cc(C#N)c(Sc2nc3c(N)ncnc3n2CCC2CCN(C(C)=O)CC2)cc1OC [Example 622, 2-({9-[2-(1-Acetylpiperidin-4-yl)ethyl]-6-amino-9 H-purin-8-yl}thio)-4,5-dimethoxybenzonitrile]",–,> 5000
"COc1ccc(OC)c(Sc2nc3c(N)ncn(CCn4cnc5ccccc5c4=O)c-3n2)c1 [Example 272, 3-(2-{6-Amino-8-[(2,5-dimethoxyphenyl)thio]-3H-purin-3-yl}ethyl)quinazolin-4(3 H)-one]",16,–
"Nc1ncnc2c1nc(Sc1cc3c(cc1Br)OCO3)n2CCC(N)C1CCOCC1 (centres unmarked) [Example 692, 9-[3-Amino-3-(tetrahydro-pyran-4-yl)-propyl]-8-(6-bromo-benzo[1,3]dioxol-5-ylsulfanyl)-9H-purin-6-ylamine]",–,2000
"CC(C)(C)C(=O)N1CCC(CCn2c(Sc3cc4c(cc3Br)OCO4)nc3c(N)ncnc32)CC1 [Example 451, 8-[(6-Bromo-1,3-benzodioxol-5-yl)thio]-9-{2-[1-(2,2-dimethylpropanoyl)piperidin-4-yl]ethyl}-9H-purin-6-amine]",–,195
"CC(C)[C@H](NC(=O)OC(C)(C)C)C(=O)N1CCC(CCn2c(Sc3cc4c(cc3Br)OCO4)nc3c(N)ncnc32)CC1 [Example 713, tert-Butyl((1S)-1-{[4-(2-{6-amino-8-[(6-bromo-1,3-benzodioxol-5-yl)thio]-9H-purin-9-yl}ethyl)piperidin-1-yl]carbonyl}-2-methylpropyl)carbamate]",–,495
"Nc1ncnc2c1nc(Sc1cc3c(cc1Br)OCO3)n2CCc1ccccc1 [Example 13, 8-(6-Bromo-benzo[1,3]dioxol-5-ylsulfanyl)-9-phenethyl-9H-purin-6-ylamine]",–,45
"Nc1ncnc2c1nc(Sc1cc3c(cc1Br)OCO3)n2CCc1ccc(O)cc1 [Example 300, 4-(2-{6-Amino-8-[(6-bromo-1,3-benzodioxol-5-yl)thio]-9H-purin-9-yl}ethyl)phenol]",–,400
"CC(C)(C)NC(=O)N1CCC(CCn2c(Sc3cc4c(cc3Br)OCO4)nc3c(N)ncnc32)CC1 [Example 433, 4-(2-{6-Amino-8-[(6-bromo-1,3-benzodioxol-5-yl)thio]-9H-purin-9-yl}ethyl)-N-(tert-butyl)piperidine-1-carboxamide]",–,125
"CC(C)C[C@H](NC(=O)OC(C)(C)C)C(=O)N1CCC(CCn2c(Sc3cc4c(cc3Br)OCO4)nc3c(N)ncnc32)CC1 [Example 699, tert-Butyl((1S)-1-{[4-(2-{6-amino-8-[(6-bromo-1,3-benzodioxol-5-yl)thio]-9H-purin-9-yl}ethyl)piperidin-1-yl]carbonyl}-3-methylbutyl)carbamate]",–,600
"COc1ccc(OC)c(Sc2nc3c(N)ncnc3n2CCc2cc(C(F)(F)F)cc(C(F)(F)F)c2)c1 [Example 219, 9-[2-(3,5-Bistrifluoromethyl-phenyl)-ethyl]-8-(2,5-dimethoxy-phenylsulfanyl)-9H-purin-6-ylamine]",–,> 8000
"Nc1ncnc2c1nc(Sc1cc3c(cc1Br)OCO3)n2CCC1CCCN(S(=O)(=O)C(F)(F)F)C1 (centres unmarked) [Example 402, 8-[(6-Bromo-1,3-benzodioxol-5-yl)thio]-9-(2-{1-[(trifluoromethyl)sulfonyl]piperidin 3-yl}ethyl)-9H-purin-6-amine]",–,590
"COc1ccc(OC)c(Sc2nc3c(N)ncn(CCc4ccc(Cl)cc4Cl)c-3n2)c1 [Example 28, 3-[2-(2,4-dichloro-phenyl)-ethyl]-8-(2,5-dimethoxy-phenyl-sulfanyl)-3H-purin-6-ylamine]",0,–
"CCC(Cn1c(Sc2cc(OC)ccc2OC)nc2c(N)ncnc21)c1ccccc1 (centres unmarked) [Example 285, 8-[(2,5-Dimethoxyphenyl)thio]-9-(2-phenylbutyl)-9H-purin-6-amine]",–,1300
"COc1ccc(OC)c(Sc2nc3c(N)ncnc3n2CCc2cccc(OC(F)(F)F)c2)c1 [Example 217, 8-(2,5-Dimethoxy-phenylsulfanyl)-9-[2-(3-trifluoromethoxy-phenyl)-ethyl]-9H-purin-6-ylamine]",–,> 10000
"COc1ccc(OC)c(Sc2nc3c(N)ncnc3n2CCc2cccc(C(F)(F)F)c2)c1 [Example 79, 8-(2,5-Dimethoxy-phenylsulfanyl)-9-[2-(3-trifluoromethyl-phenyl)-ethyl]-9H-purin-6-ylamine]",–,300
